Source: ChEMBL document CHEMBL1139693, “Structure-based design of a novel thiazolone scaffold as HCV NS5B polymerase allosteric inhibitors” (Bioorg Med Chem Lett, 2006)

Test: Inhibition of HCV NS5B polymerase
Parameters: species or system Hepacivirus hominis

IC50: 2000 nM
Structure (SMILES): Cc1ccc(S(=O)(=O)NC2=NC(=O)/C(=C/c3ccc(C)o3)S2)cc1
